Test results reported in US20260217647A1, “CANCER CELL GROWTH INHIBITING COMPOSITION AND PROCESSED FOOD” (HAGIHARA FARM PRODUCTION INSTITUTE CO., LTD., priority 2023, published 2026).

System: Jurkat cells
Assay: Growth-inhibiting activity on human leukemia T cell line Jurkat cells (viable cell counting reagent SF, 72 h)
Type: cell-based
Conditions: 72 h incubation, cell viability by absorbance A450-A630
Protocol: The cancer cell growth-inhibiting activity of each of the above samples was evaluated using the human leukemia T cell line, Jurkat.
A suspension of Jurkat cells was prepared at 2×10^5 cells/mL, and 50 μL of the suspension was seeded into each well of a 96-well plate. The evaluation sample was dissolved in DMSO and subsequently diluted 500 fold with culture medium. Immediately after dilution, 50 μL of the resulting solution was added to each well to initiate treatment. After incubation for 72 h, 10 μL of the viable cell counting reagent SF was added to each well. Following incubation for 2 to 3 hours to allow color development, absorbance at 450 nm and 630 nm was measured using a microplate reader. Cell viability was then calculated using the following formula (F1).
As, Ab, and Ac are defined as follows. • As: absorbance of evaluation well • Ab: absorbance of negative control well • Ac: absorbance of control well
The respective “absorbances” in the above formula were calculated by subtracting the absorbance at 630 nm (A630) from the absorbance at 450 nm (A450) and was represented by “A450-A630”. Furthermore, to calculate IC50, a linear approximation was performed on a graph showing the logarithmic values of the two concentrations that most narrowly bracketed a cell viability of 50%.

IC50: > 100 µM
IC50 (Homo sapiens, Jurkat, 72 h): ≥ 100 µM
SMILES: CSC/C=C(\C)CCC[C@H](C)CCC[C@H](C)CCCC(C)C [PT37]
